In US20250049871A1, “PHARMACEUTICAL COMBINATION FOR TREATING OR PREVENTING EPILEPSY AND THE USE THEREOF” (priority 2023, published 2025):

How the values were obtained:
Assay type in all cases: in vivo, Sprague-Dawley rats
[1] = system: KA-induced seizures; test: kainic acid (KA)-induced epilepsy model in animals, epileptic behavior by Racine scale; conditions: for Death: dead/total rats; for Seizure %: share of rats with seizures; for Seizure stage: then KA 15 mg/kg i.p., Racine scale within 4 hours
Procedure: Male Sprague-Dawley rats (SD rat, 150-200 g) were purchased from BioLASCO (Taiwan) and bred in Fu Jen Laboratory Animal Center. All animal experiments were approved by the IACUC of Fu Jen Catholic University. According to the 3R principles, all experiments were performed to minimize animal suffering and use the minimum number of animals necessary to produce reliable results.
The antiepileptic effect of the birch sap extract was evaluated using kainic acid (KA)-induced epilepsy model in animals. KA is an analogue of glutamate, and injection of KA into rats will increase the release of glutamate and overactivate glutamate receptors, resulting in progressive limbic seizures in rats. This phenomenon leads to increased calcium ions in nerve cells, oxidative stress, and loss of mitochondrial function, resulting in the death of nerve cells in many areas of the brain, especially in the cerebral cortex and hippocampus. In addition, KA-induced neuronal cell death is related to glial cell activation and inflammatory response caused by inflammatory molecules, such as interleukin-1β (IL-1β), interleukin-6 (IL-6), tumor necrosis factor-α (TNF-α), high mobility group Box 1 (HMGB1), interleukin 1 receptor 1 (IL-1R1), and Toll-like receptor-4 (TLR-4).
Epileptic behavioral expressions were analyzed within 4 hours after intraperitoneal injection of KA in rats.
Sprague-Dawley rats were divided into the following groups according to the administration of different test substances: • 1. Negative control group: normal saline • 2. KA group: 15 mg/kg/i.p./single dose of kainic acid (KA) • 3. Low-dose group of birch sap extract: 6 mg/kg of birch sap extract • 4. High-dose group of birch sap extract: 10 mg/kg of birch sap extract • 5. High-dose group of antiepileptic drug: 100 mg/kg of carbamazepine (CBZ) • 6. Antiepileptic pharmaceutical combination group: 6 mg/kg of birch sap extract and 50 mg/kg of CBZ • 7. Low-dose group of antiepileptic drug: 50 mg/kg of CBZ
The control group, birch sap extract groups, antiepileptic drug groups, and antiepileptic pharmaceutical combination group were fed with normal saline, birch sap extract and/or CBZ through feeding tubes at regular intervals every day. One week later, except for the negative control group, rats in each group were intraperitoneally injected with KA (15 mg/kg/i.p./single dose), and the dose of KA injection was based on the previous study. The epileptic behavior of rats was analyzed according to Racine scale (1972) within 4 hours after intraperitoneal injection of KA.

[2] = system: CA1/CA3 degenerative cells in the cerebral cortex and hippocampus; test: Fluoro-Jade B (FJB) staining of brain tissue after KA injection; conditions: pretreatment; three days after KA 15 mg/kg i.p.; p<0.05 vs KA group
Procedure: (§1) Continuing from Example 3, the experimental animals in each group were sacrificed three days after intraperitoneal injection of KA (15 mg/kg), and the brain tissues were taken out for sectioning and other relevant experimental analysis.
This phenomenon can also be reduced by the pretreatment with the birch sap extract and betulin (p<0.05; FIGS. 4A and 4B).

[3] = system: cerebral cortex and hippocampus CA1/CA3 nerve cells; test: Nissl staining of brain tissue after KA injection; conditions: pretreatment; three days after KA 15 mg/kg i.p.; p<0.05 vs KA group
Procedure: as §1

SMILES | Death ([1]; CBZ 50 mg/kg + KA) | Latency to first seizure ([1]; CBZ 50 mg/kg + KA, mean ± SEM) [min] | Seizure % ([1]; CBZ 50 mg/kg + KA) [%] | Seizure stage ([1]; CBZ 50 mg/kg oral daily for one week, mean ± SEM) | Latency to first seizure ([1]; CBZ 100 mg/kg + KA) [min] | Death ([1]; CBZ 100 mg/kg + KA) | Seizure % ([1]; CBZ 100 mg/kg + KA) [%] | Seizure stage ([1]; CBZ 100 mg/kg oral daily for one week, mean ± SEM) | time and severity of seizures compared with the KA group ([1]; low-dose group of antiepileptic drug, CBZ 50 mg/kg) | number of CA1/CA3 degenerative cells in the cerebral cortex and hippocampus (FJB staining) [2] | number of neurocytes in cerebral cortex and hippocampus CA1/CA3 (Nissl staining) [3]
NC(=O)N1c2ccccc2C=Cc2ccccc21 [CBZ, carbamazepine] | 0/3 | 89 ± 17 | 66 | 3.6 ± 0.3 | 140 | 1/11 | 10 | 0.9 ± 0.5 | not statistically different | – | –
C=C(C)[C@@H]1CC[C@]2(CO)CC[C@]3(C)[C@H](CC[C@@H]4[C@@]5(C)CC[C@H](O)C(C)(C)[C@@H]5CC[C@]43C)[C@@H]12 [betulin] | – | – | – | – | – | – | – | – | – | reduced | reduce the decrease in the number of neurocytes
